From patent US4011332A, “Hemorrhagic-lesion producing and anticoagulant-containing compositions and their use” (priority 1974, dated 1977)
Read-outs that look alike come from different tables or passages of the source.

Tests used:
[1] = system: Sprague-Dawley rats; experiment: LD5 determination / hemorrhagic stomach and gut lesions after single oral dose; details: for LD5: single oral dose, Sprague-Dawley rats, empty stomach; for LD5 (criterion for rat strain to be used): rat strain advisable for the test
Procedure: A selection of compounds from those suitable for component (b) is, however, made in a simpler manner by determining the LD5 (in mg/kg). […] Determination of the cause of death is effected, e.g., by autopsy of the dead animals.
The rats were kept in groups of 5 and four animals in plastic cages of the type M III. The room temperature was maintained at approximately 23° C. For determining the lethal doses, as mentioned in the following description, the rats were fed on empty stomachs. The animals received the noted compounds [for example, component (a) or (b) or the composition containing both] in a volume of liquid amounting to 5 ml per kg of body weight of the rat. The administration of the liquid was carried out once using a feeding tube introduced into the oesophagus. The doses of the active substances [component (a), component (b) or the composition] were varied. Component (b) was administered as a sodium salt in aqueous solution, and the number of animals which died within 10 days after administration was noted.
The lethal doses (LD5, LD50 and LD100 in mg/kg) were determined by simple linear regression, while the limits of trust were determined by the method of Litchfield and Wilcoxon.
Thereafter autopsy the dead animals to determine the cause of death.

[2] = system: Sprague-Dawley rats; experiment: animal or person; assay type: in vivo; details: for LD100 (interpolated): component (b) with 2 mg/kg 4-hydroxy-2-oxo-3-(1-phenylpropyl)-2H-chromene, single oral dose, 10 days
Source text: Note the number of animals which die within 10 days of the respective administrations.

[3] = system: Sprague-Dawley rats; details: for LD50 oral, in combination with component (b) 2 mg/kg: with 2 mg/kg 1-phenyl-3,5-di-(2-thienyl)-4-pyrazole acetic acid; for LD50 oral, in combination with component (b) 1 mg/kg: with 1 mg/kg 1-phenyl-3,5-di-(2-thienyl)-4-pyrazole acetic acid
Procedure: *Ingestion volume: 5 ml/kg, period of observation: 10 days

[4] = system: wild rats (Rattus norvegicus and Rattus ratus); experiment: LD100 of combinations in wild rats, single oral dose (Example 3); assay type: in vivo; details: full stomachs, 10 days
[5] = system: female Sprague-Dawley rats; experiment: Rodenticidal bait test, mortality in 10 days (Example 12, Table IV); assay type: in vivo; details: one day, 10 days observation
Source text: Following the rules for the examination of rodenticides against rats and mice (edited by Bundesgeshundheitsamt, Institut fuer Wasser-, Boden- und Lufthygiene, Biologische Bundesanstalt fur Land- und Forstwirtschaft, Staatliches Medizinaluntersuchungsamt, Abt. fuer hygienische Schadlingsbekampfung), female Sprague-Dawley rats weighing about 200 grams, kept in single boxes, were provided with the rodenticidal active substances* alone or in combination (expressed in mg/kg) in 4 grams of bait per rat, i.e. 20 g of bait/kg of body weight. These soft consistent, i.e. not crumbly, baits were prepared from Semmelmehl (i.e. powder prepared by grinding dry white bread) and some water. The rats on an empty stomach were provided with these baits as the only food during one day, tap water was ad libitum.
* 4-hydroxy-2-oxo-3-(3-oxo-1-phenyl-butyl)-2H-chromene and 1,5-diphenyl-3-(p-chlorophenyl)-4-pyrazole acetic acid
Thereafter, the animals were provided with usual standard diet Atromine R for the remaining duration of the test.
The mortality rate was determined during a test period of 10 days.

[6] = alone, 5 ml/kg, observation 10 days

Compound | LD5 [1] | LD100 (interpolated) [2] | also measured
CC(C(=O)O)c1ccc(C2CCCCC2)c(Cl)c1 (single isomer, unassigned) [N, d(+)-3-chloro-4-cyclohexyl-α-methyl-phenylacetic acid] | < 15 mg/kg of body weight | 5 to 10 mg/kg | –
O=C1c2ccccc2C(=O)C1c1ccccc1 [2-phenylindandione-(1,3)] | – | – | LD50 oral, alone [3, 6]: above 100 mg/kg of body weight; LD50 oral, in combination with component (b) 2 mg/kg ([3]; 5 ml/kg, observation 10 days): not less than 50 mg/kg of body weight
O=C(O)Cc1c(-c2cccs2)nn(-c2ccccc2)c1-c1cccs1 [A, 1-phenyl-3,5-di-(2-thienyl)-4-pyrazole acetic acid] | < 5 mg/kg of body weight | ~ 2.0 mg/kg | LD100, component (b) ([4]; component (a) 0 mg/kg): 7 mg/kg of rat body weight; LD100, component (b) in combination ([4]; with component (a) 2 mg/kg): 3 mg/kg of rat body weight; LD100, component (b) in combination ([4]; with component (a) 3 mg/kg): 2 mg/kg of rat body weight; LD100, component (b) in combination ([4]; with component (a) 4 mg/kg): 1.5 mg/kg of rat body weight
O=C(O)Cc1c(-c2ccc(Cl)cc2)nn(-c2ccccc2)c1-c1ccccc1 [B, 1,5-diphenyl-3-(p-chlorophenyl)-4-pyrazole acetic acid] | < 5 mg/kg of body weight | 1.5 mg/kg | –
O=C(O)Cc1c(-c2ccccc2)nn(-c2ccccc2)c1-c1ccccc1 [C, 1,3,5-triphenyl-4-pyrazole acetic acid] | < 5 mg/kg of body weight | 3.0 mg/kg | –
CCC(c1ccccc1)c1c(O)c2ccccc2oc1=O (stereo not drawn) [Component 1.1, 4-hydroxy-2-oxo-3-(1-phenylpropyl)-2H-chromene, reference compound] | – | – | LD100 ([4]; Rattus norvegicus, 240 h, component (b) 0 mg/kg): 45 mg/kg; LD100, component (a) in combination ([4]; with component (b) 1.5 mg/kg): 4 mg/kg of rat body weight; LD100, component (a) in combination ([4]; with component (b) 2 mg/kg): 3 mg/kg of rat body weight; LD100, component (a) in combination ([4]; with component (b) 3 mg/kg): 2 mg/kg of rat body weight; LD50 oral, alone [3, 6]: 3.0 mg/kg of body weight; LD50 oral, in combination with component (b) 1 mg/kg ([3]; 5 ml/kg, observation 10 days): 1.7 mg/kg of body weight; LD50 oral, in combination with component (b) 2 mg/kg ([3]; 5 ml/kg, observation 10 days): 0.55 mg/kg of body weight; LD100 ([2]; Rattus norvegicus, po, 240 h, anticoagulant alone, Sprague-Dawley rats): 17 mg/kg
CC(=O)CC(c1ccccc1)c1c(O)c2ccccc2oc1=O (stereo not drawn) [Component 1.2, 4-hydroxy-2-oxo-3-(3-oxo-1-phenylbutyl)-2H-chromene] | – | – | % of Animals which Died ([5]; Component 1.2 100 mg/kg in bait): 80%; % of Animals which Died ([5]; Component 1.2 200 mg/kg in bait): 80%; LD50 oral, alone ([3]; rat, in vivo, po, 240 h): 7.0 mg/kg of body weight; LD50 oral, in combination with component (b) 1 mg/kg ([3]; 5 ml/kg, observation 10 days): 4 mg/kg of body weight; LD50 oral, in combination with component (b) 2 mg/kg ([3]; 5 ml/kg, observation 10 days): 0.4 mg/kg of body weight
CC(C)(C)C(=O)C1C(=O)c2ccccc2C1=O [Component 1.4, 2-pivaloyl-1,3-indandione] | – | – | LD50 oral, alone [3, 6]: above 5 mg/kg of body weight; LD50 oral, in combination with component (b) 2 mg/kg ([3]; 5 ml/kg, observation 10 days): above 1 mg/kg of body weight
CC(=O)CC(c1ccc([N+](=O)[O-])cc1)c1c(O)c2ccccc2oc1=O (stereo not drawn) [Component 1.6, 4-hydroxy-2-oxo-3-[3-oxo-1-(4-nitrophenyl)butyl]-2H-chromene] | – | – | LD50 oral, alone [3, 6]: above 100 mg/kg of body weight; LD50 oral, in combination with component (b) 2 mg/kg ([3]; 5 ml/kg, observation 10 days): 1.3 mg/kg of body weight
O=C(O)Cc1c(-c2cccs2)nn(-c2ccc(Cl)cc2)c1-c1cccs1 [D, 1-(p-chlorophenyl)-3,5-di-(2-thienyl)-4-pyrazole acetic acid] | < 5 mg/kg of body weight | 5.0 mg/kg | –
COc1ccc2c(c1)c(CC(=O)O)c(C)n2C(=O)c1ccc(Cl)cc1 [E, reference compound] | < 15 mg/kg of body weight | 7.5 mg/kg | LD5 (criterion for rat strain to be used) [1]: approximately 7 mg/kg of body weight
O=C(O)Cc1c(C2CCCCC2)nn(-c2ccccc2)c1-c1ccccc1 [F, 3-cyclohexyl-1,5-diphenyl-4-pyrazole acetic acid] | < 15 mg/kg of body weight | 7.5 mg/kg | –
COc1ccc(-c2c(CC(=O)O)c(-c3ccccc3)nn2-c2ccccc2)cc1 [G, 1,3-diphenyl-5-(p-methoxyphenyl)-4-pyrazole acetic acid] | < 15 mg/kg of body weight | ~ 10.0 mg/kg | –
COc1ccc(-n2nc(-c3ccccc3)c(CC(=O)O)c2-c2ccccc2)cc1 [H, 3,5-diphenyl-1-(p-methoxyphenyl)-4-pyrazole acetic acid] | < 15 mg/kg of body weight | ~ 10.00 mg/kg | –
O=C(O)c1ccccc1O [I, salicylic acid, reference compound] | above 100 mg/kg of body weight | – | –
CC(=O)Oc1ccccc1C(=O)O [K, acetylsalicylic acid, reference compound] | above 100 mg/kg of body weight | – | –
CN1C(C(=O)Nc2nccs2)=C(O)c2ccccc2S1(=O)=O [L, n-(2-thiazolyl)-4-hydroxy-2-methyl-2H-1,2-benzothiazine-3-carboxamide-1,1-dioxide] | < 50 mg/kg of body weight | ≤ 20.00 mg/kg | –
O=C(O)Cc1c(-c2cccs2)nn(-c2ccccc2Cl)c1-c1cccs1 [M, 1(o-chlorophenyl)-3,5-(2-thienyl)-4-pyrazole acetic acid] | < 15 mg/kg of body weight | 10 to 50 mg/kg | –
O=C(O)Cc1c(-c2ccco2)nn(-c2ccccc2)c1-c1ccco1 [O, 1-phenyl-3,5-di-(2-furyl)-4-pyrazole acetic acid] | < 50 mg/kg of body weight | ~ 50 mg/kg | –
CN1C(=O)C(C(=O)Nc2ccc(F)cc2F)c2ccccc21 (stereo not drawn) [P, 1-methyl-2',4'-difluoroxindole-3-carboxanilide] | < 50 mg/kg of body weight | – | –
CN1C(O)=C(C(=O)Nc2ccc(Br)cc2)c2ccccc2S1(=O)=O [Q, n-(4-bromophenyl)-3-hydroxy-2-methyl-2H-1,2-benzothiazine-4-carboxamide-1,1-dioxide] | < 50 mg/kg of body weight | – | –
CN1C(O)=C(C(=O)Nc2ccc([N+](=O)[O-])cc2)c2ccccc2S1(=O)=O [R, n-(4-nitrophenyl)-3-hydroxy-2-methyl-2H-1,2-benzothiazine-4-carboxamide-1,1-dioxide] | < 50 mg/kg of body weight | – | –
CCCCC1C(=O)N(c2ccccc2)N(c2ccccc2)C1=O [phenylbutazone, reference compound] | – | – | LD5 (criterion for rat strain to be used) [1]: 600 mg/kg of body weight
